Test results as given in patent publication US8128959B2, “Polymeric pharmaceutical agent for treatment of cancer and method for production of the same” (Hiroshi Maeda, priority 2005, dated 2012).

Assay: Solubility in water
Type: physicochemical
Text: In order to solubilize it in water, the present inventors have conjugated it with amphiphilic polyethylene glycol (PEG) having an average molecular weight of 100-20,000 (preferably about 5,000) (patent document 2) to create a water-soluble derivative thereof.

solubility in water: insoluble in water
SMILES: C=CC1=C(C)c2cc3[n-]c(cc4nc(cc5[n-]c(cc1n2)c(C)c5C=C)C(C)=C4CCC(=O)O)c(CCC(=O)O)c3C.[Zn+2] [ZnPP, zinc-protoporphyrin]
